“And” between values parts separate entries of the source, which are not always exact repeats. Identical values can stand only once.

Type in all cases: physicochemical
Series [1] is described as follows: Total content of radio-labeled DMPC in lenses (extraction, scintillation counting). Particulars: radio labeled DMPC (C14) loaded from 1-propanol. The protocol:
(§1) Lenses are prepared according to the procedures described in Example 3, except that DMPC used in this example is a radio labeled DMPC (C14). The radio labeled DMPC is supplied by New England Nuclear (Waltham, Mass.). Lenses are loaded with radio-labeled DMPC by dipping the lenses into a solution of the radio-labeled DMPC in 1-propanol. Loaded lenses are then subjected to release testing using artificial tear fluid (ATF) as the release media. Components listed in Table 2 are dissolved in a phosphate buffered saline solution to provide a physiologically acceptable pH and osmolality.
The DMPC content of the lenses is also measured using one of two techniques: • (1) Lenses that had previously been subjected to release testing are fully extracted and the eluate is then analyzed for DMPC content. This amount of DMPC is numerically added to the DMPC already quantified in the release media. Thus, all DMPC is accounted for, cradle-to-grave. • (2) Other lenses, not subject to release testing, are also extracted to determine initial DMPC content (total loading of DM PC in lenses).

The nature of series [2]: Release of radio-labeled DMPC from lens into ATF over 24 hours (scintillation counter). Particulars: 1 mL ATF, radio labeled DMPC (C14). How it is done:
as §1
Release tests are conducted by placing a single lens in 1 mL of ATF and then incubating the sample for 24 hours. At specified time points of 0, 2, 4, 10, and 24 hours, small samples of release media are pulled and analyzed for DM PC content using a scintillation counter (C14 emits a weak beta particle).

The nature of series [3]: First release test: lens in artificial tear fluid (ATF) refreshed every 30 min, DMPC left in lens. Particulars: first test: 500 μL ATF replaced every 30 min, 35° C., 8 hrs, n=5. How it is done: Lenses (as prepared in Example 3) are subjected to one of two release tests in artificial tear fluid (ATF) prepared without any phospholipids and having a composition shown in Table 1. The first test is designed to maximize release of DMPC from the lens by refreshing the ATF frequently. A single lens is placed in 500 μL of ATF and incubated at 35° C. for 8 hrs. Every 30 min, the sample is vortexed, the ATF is withdrawn, a fresh 500 μL aliquot of ATF is added to the lens, the sample is again vortexed, and the sample is returned to the incubator. At the conclusion of 8 hrs, the lenses are removed from ATF, placed in 1 mL clean PBS, and submitted for analysis of DMPC content. The second test is designed to try to maximize the amount of DM PC in ATF by leaving the lens in ATF for the entire release test. A single lens is placed in 1 mL ATF and incubated at 35° C. for 8 hrs. Every 30 min, the sample is vortexed and then returned to the incubator. At the conclusion of 8 hrs, the lens is removed from the ATF and the ATF is submitted for analysis. All analysis is done using an enzymatic assay method.

The nature of series [4]: Second release test: lens left in ATF for 8 hrs, DMPC in ATF. Particulars: second test: 1 mL ATF, 35° C., 3 pooled ATF samples, just below dynamic range of the assay. The protocol: Lenses (as prepared in Example 3) are subjected to one of two release tests in artificial tear fluid (ATF) prepared without any phospholipids and having a composition shown in Table 1. The second test is designed to try to maximize the amount of DM PC in ATF by leaving the lens in ATF for the entire release test. A single lens is placed in 1 mL ATF and incubated at 35° C. for 8 hrs. Every 30 min, the sample is vortexed and then returned to the incubator. At the conclusion of 8 hrs, the lens is removed from the ATF and the ATF is submitted for analysis. All analysis is done using an enzymatic assay method. Three ATF samples are pooled to increase the DMPC signal. […] The value for the 3 pooled samples is just below the dynamic range of the assay, making confidence in the quantified DMPC levels difficult yet still providing evidence of DMPC release from the lenses.

A short description of series [5]: Control lenses: DMPC loading of Example 3 lenses (enzymatic assay). The settings on record: control lenses of Example 3, no release test, n=5. The source says: Lenses are demolded and extracted with an organic solvent (e.g., isopropanol, 1-propanol, Dowanol, methyl ethyl ketone (MEK), or the like) and then dipped in a Dowanol PM (or alternatively MEK or 1-propanol) solution of polyacrylic acid (0.1% by weight, pH ˜2.0). The lenses are then rinsed for 60 seconds in water and then dipped in a Dowanol (or alternatively MEK or 1-propanol) solution of 1,2-dimyristoyl-sn-glycero-3-phosphocholine (DMPC, 1%) for about 60 to about 100 seconds. The lenses are then rinsed in water for 120 seconds and packaged in PBS. Lenses are then autoclaved for 30 min at 121° C. The second test is designed to try to maximize the amount of DM PC in ATF by leaving the lens in ATF for the entire release test. A single lens is placed in 1 mL ATF and incubated at 35° C. for 8 hrs. Every 30 min, the sample is vortexed and then returned to the incubator. At the conclusion of 8 hrs, the lens is removed from the ATF and the ATF is submitted for analysis. All analysis is done using an enzymatic assay method. A control set of lenses is submitted to confirm loading of the lenses with DMPC. This control sample set (n=5) show an average loading of 200 μg DMPC per lens.

Series [6] in a line: Release of DMPC from pooled Example 6 lenses into ATF, 24 hours, HPLC. The settings on record: pooled lenses (35 lenses in 3.5 mL ATF and 50 lenses in 5 mL ATF), 37° C. How it is done: The release profile of contact lenses with comfort agents (DMPC and L-PEG) are determined as follows. Lenses are placed in release media (artificial tear fluid (ATF) as described in Example 4) for release testing. Lenses are pooled (35 lenses in 3.5 mL ATF and 50 lenses in 5 mL ATF) and then gently agitated at 37° C. for 24 hours. At the conclusion of the 24-hour release study, the lenses are removed from the ATF. The remaining ATF is then transferred to centrifuge tubes and dried overnight under vacuum in a centrifugal evaporator.
The dried residue from the ATF is then resuspended in 1-propanol (1 mL 1-propanol for each original 5 mL ATF) using sonication to assist in resuspension. The resulting solution is analyzed for presence of DMPC using HPLC.

Series [7] can be described thus: Comfort agent content of Example 6 lenses (exhaustive isopropanol extraction). The settings on record: comfort agent added to lens formulation, after autoclave. The protocol: A lens formulation is prepared as detailed in Example 3 where 1,2-dimyristoyl-sn-glycero-3-phosphocholine (DMPC) is added to the formulation at a concentration of 0.75% by weight and where the formulation solvent, 1-propanol, is reduced to 22.65% by weight. Lens curing is as described in Example 3. The lenses are demolded and then extracted in methyl ethyl ketone followed by a rinse in DI water for 56 seconds. The lenses are then dipped in a solution of polyacrylic acid (0.36% wt/vol in 1-propanol, pH-2). The lenses are then rinsed in water for 120 seconds and packaged in phosphate buffered saline. Lenses are then autoclaved for 30 minutes at 121° C. The content of comfort agents, DMPC and L-PEG, are determined as follows. Lenses are exhaustively extracted in isopropanol and the extract is tested for DMPC and N-(carbonyl-methoxypolyethylene glycol-2000)-1,2-disteaoyl-sn-glycero-3-phosphoethanolamine, sodium salt (L-PEG-2000) content. Lenses contain on average 30 μg DMPC and 10 μg L-PEG-2000 per lens.

As for `CCCCCCCCCCCCCC(=O)OC[C@H](COP(=O)([O-])OCC[N+](C)(C)C)OC(=O)CCCCCCCCCCCCC` [DMPC, 1,2-dimyristoyl-sn-glycero-3-phosphocholine], the “total DMPC content of the lenses” value in series [1] is given as 32.1±2.7 micrograms of DMPC per lens. Also, the DMPC release order result in series [2] (0-24 hours) was “first order”. In addition, in series [2] (24-hour test period, eight samples), the “average cumulative DMPC release from the lens” value is 1.3 µg. In addition, in series [3], the “average DMPC content of lens after release” value is given as 177 μg DMPC per lens. Besides, the “DMPC in the ATF equivalent per lens” value in series [4] was 6 μg DM PC per lens. In series [5], the “average loading of DMPC per lens” value is given as 200 μg DMPC per lens. The “DMPC in ATF after release” value in series [6] was 0.48 μg per mL ATF and 0.69 μg per mL ATF. For the same molecule, the “average content per lens” value in series [7] amounted to 30 μg per lens.
Take “N-(carbonyl-methoxypolyethylene glycol-2000)-1,2-distearoyl-sn-glycero-3-phosphoethanolamine sodium salt [L-PEG-2000]”: the “average content per lens” value in series [7] is on record as 10 μg per lens.

Values taken from patent publication US10913224B2, “Ophthalmic devices for delivery of hydrophobic comfort agents” (Novartis AG, priority 2008, dated 2021).
